The text below walks through data of PubChem BioAssay AID246 (DTP/NCI, 2004).

Where “and” joins values, the source holds several entries; their conditions need not be identical. Equal values may be shown once. Inconclusive results and toxic doses are left out.

In the assay the test system is BDF1 mice, P1081 chloroleukemia ip, survival T/C. The assay can be described thus: NCI In Vivo Anticancer Drug Screen. Data for tumor model P1081 Chloroleukemia (intraperitoneal) in B6D2F1 (BDF1) mice. The note with it: endpoint: mean survival time, higher = longer survival. Here is the method: The antitumor activity of compounds was measured in mice bearing transplantable tumors. Survival or tumor size were measured and the results are expressed as the measurement made in the treated group (T) divided by the measurement made in the vehicle treated control group (C). The tumor model used in this assay is P1081 Chloroleukemia (intraperitoneal) in B6D2F1 (BDF1) mice

Where [1] appears, read: dose: 25.0 mg/kg/injection, schedule: Q01DX010 (ip), vehicle: saline.
[2] abbreviates: dose: 3.9 mg/kg/injection, schedule: Q01DX Z (ip), vehicle: carboxymethylcellulose (CMC).
Setting [3] is: dose: 8.0 mg/kg/injection, schedule: Q01DX010 (ip), vehicle: saline.
[4] abbreviates: dose: 16.0 mg/kg/injection, schedule: Q01DX010 (ip), vehicle: saline.

`CC(=O)[C@H]1CC[C@H]2[C@@H]3C[C@H](C)C4=CC(=O)CC[C@]4(C)[C@H]3C(=O)C[C@]12C`: the T/C by setting is: (dose: 6.3 mg/kg/injection, schedule: Q01DX Z (sc), vehicle: steriod suspending solution) 121 % of control; (dose: 12.5 mg/kg/injection, schedule: Q01DX Z (sc), vehicle: steriod suspending solution) 110 % of control; (dose: 25.0 mg/kg/injection, schedule: Q01DX Z (sc), vehicle: steriod suspending solution) 110 % of control; (dose: 50.0 mg/kg/injection, schedule: Q01DX Z (sc), vehicle: steriod suspending solution) 101 % of control; (dose: 100.0 mg/kg/injection, schedule: Q01DX Z (sc), vehicle: steriod suspending solution) 98 % of control; (dose: 200.0 mg/kg/injection, schedule: Q01DX Z (sc), vehicle: steriod suspending solution) 105 % of control and 94 % of control.
As to `O=C1C(NC(=O)C2CCCCC2)=C(N2CC2)C(=O)C(NC(=O)C2CCCCC2)=C1N1CC1`, the T/C runs as follows: (dose: 4.7 mg/kg/injection, schedule: Q01DX Z (ip), vehicle: carboxymethylcellulose (CMC)) 118 % of control; (dose: 9.4 mg/kg/injection, schedule: Q01DX Z (ip), vehicle: carboxymethylcellulose (CMC)) 109 % of control and 103 % of control; (dose: 18.8 mg/kg/injection, schedule: Q01DX Z (ip), vehicle: carboxymethylcellulose (CMC)) 117 % of control; under setting [1], 90 % of control; (dose: 37.5 mg/kg/injection, schedule: Q01DX Z (ip), vehicle: carboxymethylcellulose (CMC)) 112 % of control and 117 % of control; (dose: 50.0 mg/kg/injection, schedule: Q01DX010 (ip), vehicle: saline) 90 % of control. In addition, the T/C (dose: 75.0 mg/kg/injection, schedule: Q01DX Z (ip), vehicle: carboxymethylcellulose (CMC)) was 109 % of control; the T/C (dose: 100.0 mg/kg/injection, schedule: Q01DX010 (ip), vehicle: saline) is 90 % of control; the T/C (dose: 150.0 mg/kg/injection, schedule: Q01DX Z (ip), vehicle: carboxymethylcellulose (CMC)) is 116 % of control; the T/C (dose: 300.0 mg/kg/injection, schedule: Q01DX Z (ip), vehicle: carboxymethylcellulose (CMC)) was 109 % of control; the T/C (dose: 600.0 mg/kg/injection, schedule: Q01DX Z (ip), vehicle: carboxymethylcellulose (CMC)) was 88 % of control.
Regarding `NC(Cc1ccc(N(CCCl)CCCl)cc1)C(=O)O` (configuration not stated), the T/C by setting is: (dose: 1.25 mg/kg/injection, schedule: Q01DX Z (ip), vehicle: carboxymethylcellulose (CMC)) 115 % of control; (dose: 2.5 mg/kg/injection, schedule: Q01DX010 (ip), vehicle: saline) 150 % of control and 333 % of control; (dose: 5.0 mg/kg/injection, schedule: Q01DX010 (ip), vehicle: saline) 327 % of control; (dose: 5.0 mg/kg/injection, schedule: Q01DX Z (ip), vehicle: carboxymethylcellulose (CMC)) 189 % of control; (dose: 10.0 mg/kg/injection, schedule: Q01DX010 (ip), vehicle: saline) 90 % of control; (dose: 10.0 mg/kg/injection, schedule: Q01DX Z (ip), vehicle: carboxymethylcellulose (CMC)) 90 % of control.
Turning to `N=C(N)c1ccc(Nc2ccc(C(=N)N)cc2)cc1`, the T/C reads like this: (dose: 0.8 mg/kg/injection, schedule: Q01DX Z (ip), vehicle: methylcellulose (MC)) 95 % of control; (dose: 1.6 mg/kg/injection, schedule: Q01DX Z (ip), vehicle: methylcellulose (MC)) 107 % of control; (dose: 3.0 mg/kg/injection, schedule: Q01DX010 (ip), vehicle: saline) 111 % of control; (dose: 3.1 mg/kg/injection, schedule: Q01DX Z (ip), vehicle: methylcellulose (MC)) 96 % of control and 103 % of control; (dose: 6.0 mg/kg/injection, schedule: Q01DX010 (ip), vehicle: saline) 100 % of control; (dose: 6.3 mg/kg/injection, schedule: Q01DX Z (ip), vehicle: methylcellulose (MC)) 99 % of control. Further, the T/C is, setting by setting: (dose: 12.0 mg/kg/injection, schedule: Q01DX010 (ip), vehicle: saline) 100 % of control; (dose: 12.5 mg/kg/injection, schedule: Q01DX Z (ip), vehicle: methylcellulose (MC)) 98 % of control.
Turning to `COc1cc(-c2ccc(Nc3ccccc3C(=O)O)c(OC)c2)ccc1Nc1ccccc1C(=O)O`, the T/C (dose: 12.5 mg/kg/injection, schedule: Q01DX010 (ip), vehicle: saline) was 116 % of control and the T/C under setting [1] is 122 % of control.
With `c1ccc(CNc2ncnc3[nH]ncc23)cc1`, the T/C was 93 % of control (dose: 0.98 mg/kg/injection, schedule: Q01DX Z (ip), vehicle: carboxymethylcellulose (CMC)); 94 % of control (dose: 1.95 mg/kg/injection, schedule: Q01DX Z (ip), vehicle: carboxymethylcellulose (CMC)); 93 % of control under setting [2]; 112 % of control (dose: 7.8 mg/kg/injection, schedule: Q01DX Z (ip), vehicle: carboxymethylcellulose (CMC)); 111 % of control under setting [3]; 111 % of control and 116 % of control under setting [4]. For the same molecule, the T/C is 111 % of control and 122 % of control (dose: 32.0 mg/kg/injection, schedule: Q01DX010 (ip), vehicle: saline); 111 % of control (dose: 64.0 mg/kg/injection, schedule: Q01DX010 (ip), vehicle: saline).
For `Nc1nc(=S)c2[nH]cnc2[nH]1`, the T/C was 169 % of control (dose: 0.25 mg/kg/injection, schedule: Q01DX Z (ip), vehicle: carboxymethylcellulose (CMC)); 91 % of control (dose: 1.0 mg/kg/injection, schedule: Q01DX Z (ip), vehicle: carboxymethylcellulose (CMC)); 150 % of control (dose: 1.25 mg/kg/injection, schedule: Q01DX010 (ip), vehicle: other); 110 % of control and 113 % of control (dose: 2.5 mg/kg/injection, schedule: Q01DX010 (ip), vehicle: other); 110 % of control (dose: 5.0 mg/kg/injection, schedule: Q01DX010 (ip), vehicle: other); 100 % of control (dose: 31.2 micrograms/kg/injection, schedule: Q01DX Z (ip), vehicle: carboxymethylcellulose (CMC)). Also, the T/C by setting is: (dose: 62.5 micrograms/kg/injection, schedule: Q01DX Z (ip), vehicle: carboxymethylcellulose (CMC)) 103 % of control; (dose: 250.0 micrograms/kg/injection, schedule: Q01DX Z (ip), vehicle: carboxymethylcellulose (CMC)) 155 % of control.
In the case of `O=C(Nc1ccc(C2=NCCCN2)cc1)c1ccc(NC(=O)c2ccc(C3=NCCCN3)cc2)cc1`, the T/C is, setting by setting: (dose: 1.95 mg/kg/injection, schedule: Q01DX Z (ip), vehicle: water) 123 % of control; under setting [2], 157 % of control; (dose: 3.9 mg/kg/injection, schedule: Q01DX Z (ip), vehicle: water) 193 % of control; (dose: 7.8 mg/kg/injection, schedule: Q01DX Z (ip), vehicle: water) 202 % of control; (dose: 15.6 mg/kg/injection, schedule: Q01DX Z (ip), vehicle: carboxymethylcellulose (CMC)) 92 % of control; (dose: 15.6 mg/kg/injection, schedule: Q01DX Z (ip), vehicle: water) 86 % of control.
As for `C=CC(CN1CC1)OC(C)=O` (configuration not stated), the T/C (dose: 0.24 mg/kg/injection, schedule: Q01DX Z (ip), vehicle: carboxymethylcellulose (CMC)) was 108 % of control; the T/C (dose: 0.47 mg/kg/injection, schedule: Q01DX Z (ip), vehicle: carboxymethylcellulose (CMC)) was 116 % of control; the T/C (dose: 0.94 mg/kg/injection, schedule: Q01DX Z (ip), vehicle: carboxymethylcellulose (CMC)) is 103 % of control; the T/C (dose: 3.75 mg/kg/injection, schedule: Q01DX Z (ip), vehicle: carboxymethylcellulose (CMC)) is 194 % of control; the T/C (dose: 4.0 mg/kg/injection, schedule: Q01DX010 (ip), vehicle: saline) is 150 % of control; the T/C under setting [3] is 160 % of control. Moreover, the T/C under setting [4] was 170 % of control.
